Results reported in publication PMC7072973, “Differential Signaling Profiles of MC4R Mutations with Three Different Ligands” (International Journal of Molecular Sciences, 2020).
Entries after “also recorded” stand apart in the source; their conditions may differ. Read-outs that look alike come from different tables or passages of the source.

Key:
MC4R V103I [1] = target: T1, MC4R V103I (Homo sapiens, UniProt P32245, V103I)
Target sequence in this assay (P32245 whole entry V103I): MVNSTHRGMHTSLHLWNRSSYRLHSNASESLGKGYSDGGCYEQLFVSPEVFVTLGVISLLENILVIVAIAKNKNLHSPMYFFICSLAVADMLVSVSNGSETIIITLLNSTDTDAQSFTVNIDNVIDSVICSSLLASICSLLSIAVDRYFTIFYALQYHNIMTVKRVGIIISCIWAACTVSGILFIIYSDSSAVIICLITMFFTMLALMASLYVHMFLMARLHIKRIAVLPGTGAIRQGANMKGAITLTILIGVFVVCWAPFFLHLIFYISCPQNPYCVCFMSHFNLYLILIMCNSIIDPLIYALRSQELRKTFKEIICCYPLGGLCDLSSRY
Experimental: (§5) Activation of PLC, RhoA and ERK1/2 phosphorylation was determined using luciferase-based reporter gene assays that utilize responsive elements in the promotor region of the gene encoding a firefly luciferase. For PLC activation, the NFAT responsive element (NFAT-luc, pGL4.33) was co-transfected with the receptor mutations. Similarly, co-transfections with SRF responsive element (SRF-luc, pGL4.33, Promega, Mannheim, Germany) for RhoA activation and Serum response element (SRE-luc, pGL3.4, Promega, Mannheim, Germany) for ERK1/2 phosphorylation were performed. […]
(§6) Measurement of luciferase activity provided information about the activation of the respective second messenger by transferring 10 µL lysate into a white opaque 96-well plate. Injection of 40 µL firefly luciferase substrate (Promega, Mannheim, Germany) and measurement of luminescence was performed with a plate reader (Mithras LB 940).
(§7) Concentration–response curves of each experiment were analyzed by fitting a non-linear regression model for sigmoidal response in Graph Pad Prism 6 (GraphPad Software Inc., La Jolla, CA, USA) to determine potency (EC50 values). […] Emax is the maximal response (efficiency) of the mutation, which was determined from the concentration–response curves. […]

MC4R V103I [2] = target: T1, MC4R V103I; remark: listed apart in the source
Target sequence in this assay (P32245 whole entry V103I): as above
Experimental: as §5, §6, §7

MC4R WT [3] = target: T2, MC4R WT (Homo sapiens, UniProt P32245); assay: β-arrestin2 recruitment (NanoBRET), MC4R WT; assay type: cell-based; parameters: expressed in transfected cells; host or cells: HEK293; settings: HEK293, β-arrestin2, 5 min, mean ± SEM, 3 to 7 experiments in triplicates
Experimental: (§1) A total of 16–20 h after transfection in 6-well plates, cells were detached, and cell number was adjusted to 2.2 × 10^5 cells/mL in Opti-MEM without phenol red supplemented with 4% FBS. Cells were divided into two pools, adding either the acceptor NanoBRET™ Ligand 618 (1 µL/mL cells of 0.1 mM solution) or the same amount of DMSO as background control. After reseeding 90 µL cell suspension/well into a white 96-well plates, incubation was continued for 4–6 h.
(§2) For measurements, 25 µL of NanoBRET™ substrate was injected using a plate reader (Mithras LB 940). Donor and acceptor emission were measured at 460 nm and 610 nm, respectively, and the BRET ratio was calculated by dividing acceptor emission by donor emission:(1) BRET ratio =emissionacceptor/emissiondonor
(§3) The ratio was corrected for background bleed through by subtracting of the background ratio (no acceptor DMSO control) and conversion to milliBRET units (mBU):(2) corrected BRET ratio [mBU]=(BRET ratiosample−BRET rationo acceptor control)×1000
(§4) To calculate the difference between stimulated and basal interaction, the NET BRET was acquired using the formula:(3) NET BRET = corrected BRET ratiostim− corrected BRET ratiobasal
Target sequence in this assay (P32245 whole entry): as the sequence (P32245 whole entry V103I) above, with I103V counted along it
Target sequence in this assay (P29067 whole entry partner): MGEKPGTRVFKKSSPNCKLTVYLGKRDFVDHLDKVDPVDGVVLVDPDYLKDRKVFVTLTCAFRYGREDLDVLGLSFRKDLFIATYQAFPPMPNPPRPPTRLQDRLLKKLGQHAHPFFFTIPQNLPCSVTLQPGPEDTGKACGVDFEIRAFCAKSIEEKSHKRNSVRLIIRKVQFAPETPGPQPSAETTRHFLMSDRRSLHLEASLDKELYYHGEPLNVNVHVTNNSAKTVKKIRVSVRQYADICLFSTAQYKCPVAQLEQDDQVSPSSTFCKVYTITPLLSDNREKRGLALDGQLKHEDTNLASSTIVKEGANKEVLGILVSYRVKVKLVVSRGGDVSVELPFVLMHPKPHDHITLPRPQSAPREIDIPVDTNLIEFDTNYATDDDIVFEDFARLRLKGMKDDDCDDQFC

MC4R H158R [4] = target: T3, MC4R H158R (Homo sapiens, UniProt P32245, H158R)
Target sequence in this assay (P32245 whole entry H158R): as the sequence (P32245 whole entry V103I) above, with I103V, H158R counted along it
Experimental: as §5, §6, §7

MC4R V103I [5] = target: T1, MC4R V103I; remark: listed apart in the source
Target sequence in this assay (P32245 whole entry V103I): as the sequence (P32245 whole entry V103I) above
Experimental: (§8) GS and Gi coupling to the MC4R were determined using the AlphaScreen™ assay (Perkin Elmer Life Science, Boston, MA, USA) performed according to the manufacturer’s protocol and described elsewhere [68]. […] Determination of Gi coupling was investigated by pretreatment with 50 µg/mL PTX 18 h before stimulation. All stimulations were performed at 37 °C and 5% CO2. Incubation was stopped by removing the compounds and lysing the cells in lysis buffer containing IBMX for 1.5–2 h at 4 °C on a shaking platform.
The determination of cAMP using the AlphaScreen™ assay is a competitive immune assay based on antibody-coupled acceptor beads that bind cAMP and streptavidin-coupled donor beads that bind to a biotinylated cAMP probe. Excitement of the donor bead leads to the conversion of ambient oxygen to a singlet state. In close proximity of donor and acceptor beads through binding the biotinylated probe, the acceptor reacts with the singlet molecule and emits light. Absolute amounts of cAMP are determined by the simultaneous measurement of a cAMP standard. The plate reader (Mithras 940 LB)) was used for the read out, at 565 nm.
Concentration–response curves of each experiment were analyzed by fitting a non-linear regression model for sigmoidal response in Graph Pad Prism 6 (GraphPad Software Inc., La Jolla, CA, USA) to determine potency (EC50 values). For mutations that had EC50 values outside of concentration tested, it was set to the appropriate highest concentration tested. Signaling bias analysis was performed as described by Kenakin (2017) [69] using the formula (4) Δlog(Emax/EC50) = log(Emaxtest/EC50 test)−log(Emaxref/EC50 ref) with test referring to the tested receptor mutation and ref being reference (MC4R WT). Emax is the maximal response (efficiency) of the mutation, which was determined from the concentration–response curves. Where no Emax could be determined from incomplete curves (e.g., in case of AgRP co-stimulation), the response of the maximal concentration was substituted as has been described by Winpenny et al. (2016) [70].

MC4R WT [6] = target: T2, MC4R WT; settings: HEK293, cAMP, 40 min, IBMX, mean ± SEM, 3 to 7 experiments in triplicates
Target sequence in this assay (P32245 whole entry): as the sequence (P32245 whole entry V103I) above, with I103V counted along it
Experimental: as §8
(§9) The determination of cAMP using the AlphaScreen™ assay is a competitive immune assay based on antibody-coupled acceptor beads that bind cAMP and streptavidin-coupled donor beads that bind to a biotinylated cAMP probe. Excitement of the donor bead leads to the conversion of ambient oxygen to a singlet state. […] Absolute amounts of cAMP are determined by the simultaneous measurement of a cAMP standard. The plate reader (Mithras 940 LB)) was used for the read out, at 565 nm.
as §7

MC4R WT [7] = assay: GS signaling (cAMP) with AgRP co-stimulation, MC4R WT; assay type: cell-based, human
Experimental: (§10) Therefore, in addition to cAMP measurements to assess GS activation in the absence and presence of 100 nM AgRP, we measured Gi/o activation via determination of second messenger (cAMP) modulation by adenylyl cyclase (AC) in the absence or presence of pertussis toxin (PTX) pretreatment.
as §8, §9

MC4R H158R [8] = target: T3, MC4R H158R; assay type: cell-based; parameters: expressed in transfected cells; host or cells: HEK293
Experimental: as §1, §2, §3, §4
Target sequence in this assay (P32245 whole entry H158R): as the sequence (P32245 whole entry V103I) above, with I103V, H158R counted along it
Target sequence in this assay (P29067 whole entry partner): as the sequence (P29067 whole entry partner) above

MC4R V103I [9] = target: T1, MC4R V103I; assay type: cell-based; parameters: expressed in transfected cells; host or cells: HEK293; settings: HEK293, β-arrestin2, 5 min, mean ± SEM, 3 to 7 experiments in triplicates
Experimental: as §1, §2, §3, §4
Target sequence in this assay (P32245 whole entry V103I): as the sequence (P32245 whole entry V103I) above
Target sequence in this assay (P29067 whole entry partner): as the sequence (P29067 whole entry partner) above

MC4R V103I [10] = target: T1, MC4R V103I; remark: listed apart in the source
Target sequence in this assay (P32245 whole entry V103I): as the sequence (P32245 whole entry V103I) above
Experimental: as §5, §6, §7

MC4R WT [11] = target: T2, MC4R WT; settings: HEK293, PTX-sensitive cAMP, mean ± SEM, 3 to 7 experiments in triplicates
Target sequence in this assay (P32245 whole entry): as the sequence (P32245 whole entry V103I) above, with I103V counted along it
Experimental: (§11) Therefore, in addition to cAMP measurements to assess GS activation in the absence and presence of 100 nM AgRP, we measured Gi/o activation via determination of second messenger (cAMP) modulation by adenylyl cyclase (AC) in the absence or presence of pertussis toxin (PTX) pretreatment. In the presence of PTX, which locks the Gαi/o subunit in its GDP-bound inactivated state, the G protein is no longer able to inhibit the AC to form cAMP [48]. Although this is an indirect way of measuring the contributions from Gi/o signaling to the total amount of intracellular cAMP, we will refer to these measurements as Gi/o coupling in order to simplify the results part.
(§12) GS and Gi coupling to the MC4R were determined using the AlphaScreen™ assay (Perkin Elmer Life Science, Boston, MA, USA) performed according to the manufacturer’s protocol and described elsewhere [68]. […] Determination of Gi coupling was investigated by pretreatment with 50 µg/mL PTX 18 h before stimulation. […]
(§13) The determination of cAMP using the AlphaScreen™ assay is a competitive immune assay based on antibody-coupled acceptor beads that bind cAMP and streptavidin-coupled donor beads that bind to a biotinylated cAMP probe. […] Absolute amounts of cAMP are determined by the simultaneous measurement of a cAMP standard. The plate reader (Mithras 940 LB)) was used for the read out, at 565 nm. […]

MC4R V103I [12] = target: T1, MC4R V103I; remark: listed apart in the source
Target sequence in this assay (P32245 whole entry V103I): as the sequence (P32245 whole entry V103I) above
Experimental: as §11, §12, §13

MC4R H158R [13] = target: T3, MC4R H158R; remark: listed apart in the source
Target sequence in this assay (P32245 whole entry H158R): as the sequence (P32245 whole entry V103I) above, with I103V, H158R counted along it
Experimental: as §11, §12, §13

MC4R H158R [14] = target: T3, MC4R H158R; remark: listed apart in the source
Target sequence in this assay (P32245 whole entry H158R): as the sequence (P32245 whole entry V103I) above, with I103V, H158R counted along it
Experimental: as §5, §6, §7

MC4R H158R [15] = target: T3, MC4R H158R; remark: listed apart in the source
Target sequence in this assay (P32245 whole entry H158R): as the sequence (P32245 whole entry V103I) above, with I103V, H158R counted along it
Experimental: as §8, §9, §7

MC4R H158R [16] = target: T3, MC4R H158R; remark: listed apart in the source
Target sequence in this assay (P32245 whole entry H158R): as the sequence (P32245 whole entry V103I) above, with I103V, H158R counted along it
Experimental: as §5, §6, §7

MC4R WT [17] = target: T2, MC4R WT; settings: HEK293, NFAT-luc, 6 h, mean ± SEM, 3 to 7 experiments in triplicates
Target sequence in this assay (P32245 whole entry): as the sequence (P32245 whole entry V103I) above, with I103V counted along it
Experimental: as §5, §6, §7

MC4R WT [18] = target: T2, MC4R WT; settings: HEK293, SRF-luc, 6 h, mean ± SEM, 3 to 7 experiments in triplicates
Target sequence in this assay (P32245 whole entry): as the sequence (P32245 whole entry V103I) above, with I103V counted along it
Experimental: as §5, §6, §7

MC4R WT [19] = target: T2, MC4R WT; settings: HEK293, SRE-luc, 6 h, mean ± SEM, 3 to 7 experiments in triplicates
Target sequence in this assay (P32245 whole entry): as the sequence (P32245 whole entry V103I) above, with I103V counted along it
Experimental: as §5, §6, §7

MC4R = settings: cited from earlier work
Text: The MC4R signals mainly via activation of the stimulating G protein GS, which leads to an increase in intracellular cyclic adenosine-monophosphate (cAMP). In recent years, more and more studies provided evidence that the MC4R is able to couple to a variety of signaling pathways, such as extracellular regulated kinase (ERK) activation, and to other G proteins, such as Gi/o, Gq/11 and G12/13 [10, 11, 12, 13]. These pathways might also be involved in the anorexigenic effect of the activated MC4R [14].

MC4R H158R [20] = settings: 100 nM AgRP
MC4R V103I [21] = settings: synthetic agonist MTII; cited from earlier work
MC4R V103I [22] = settings: agonist α-MSH, 100 nM AgRP
[23] = test system: all tested MC4R mutations; assay: GS signaling (cAMP) with AgRP, all tested MC4R mutations; settings: all tested MC4R mutations and ligands; Figure S1
Experimental: as §10, §8, §9

[24] = HEK293, SRF-luc, 6 h, mean ± SEM, 3 to 7 experiments in triplicates
[25] = HEK293, NFAT-luc, 6 h, mean ± SEM, 3 to 7 experiments in triplicates
[26] = HEK293, cAMP, 40 min, IBMX, mean ± SEM, 3 to 7 experiments in triplicates
[27] = HEK293, SRE-luc, 6 h, mean ± SEM, 3 to 7 experiments in triplicates
[28] = HEK293, PTX-sensitive cAMP, mean ± SEM, 3 to 7 experiments in triplicates

CSCC[C@H](NC(=O)[C@H](CCCNC(=N)N)NC(=O)[C@H](Cc1ccc(O)cc1)NC(=O)[C@@H]1CCCN1C(=O)CNC(=O)[C@H](CCC(=O)O)NC(=O)[C@H](CC(=O)O)NC(=O)[C@H](CCCCN)NC(=O)[C@H](CCCCN)NC(=O)[C@H](CCC(=O)O)NC(=O)[C@H](C)N)C(=O)N[C@@H](CCC(=O)O)C(=O)N[C@@H](Cc1c[nH]cn1)C(=O)N[C@@H](Cc1ccccc1)C(=O)N[C@@H](CCCNC(=N)N)C(=O)N[C@@H](Cc1c[nH]c2ccccc12)C(=O)NCC(=O)N[C@@H](CO)C(=O)N1CCC[C@H]1C(=O)N1CCC[C@H]1C(=O)N[C@@H](CCCCN)C(=O)N[C@@H](CC(=O)O)C(=O)O [β-MSH, β-melanocyte stimulating hormone]
G12/13 (RhoA) activation compared to WT (MC4R V103I [1]): strong positive bias towards Gi/o coupling, RhoA activation via G12/13 | Emax (MC4R V103I [1]; [24]): 2.29 fold over WT basal | Gq/11 (PLC) activation compared to WT (MC4R V103I [2]): increased Gq/11 coupling | Emax (MC4R V103I [2]; [25]): 14.65 fold over WT basal | Emax (MC4R WT [3]): 1.93 fold over WT basal | Gq/11 (PLC) activation compared to WT (MC4R H158R [4]): increased GS and Gq/11 signaling | Emax (MC4R H158R [4]; [25]): 10.40 fold over WT basal | GS signaling compared to WT (MC4R V103I [5]): reduced (though not significantly); also recorded: tendency towards low GS signaling | Emax (MC4R V103I [5]; [26]): 8.69 fold over WT basal | Emax (MC4R WT [6]): 10.05 fold over WT basal | GS signaling in the presence of 100 nM AgRP (MC4R WT [7]): not as strongly affected compared to the one of α-MSH | β-arrestin2 recruitment compared to WT (MC4R H158R [8]): WT-like activity in G12/13 and β-arrestin2 recruitment | Emax (MC4R V103I [9]): 1.35 fold over WT basal | ERK phosphorylation compared to WT (MC4R V103I [10]): tendency towards an ERK signaling bias, which was not significant | Emax (MC4R V103I [10]; [27]): 5.14 fold over WT basal | Emax (MC4R WT [11]): 26.86 fold over WT basal | Gi/o coupling compared to WT (MC4R V103I [12]): strong positive bias towards Gi/o coupling | Emax (MC4R V103I [12]; [28]): 16.65 fold over WT basal | Gi/o coupling compared to WT (MC4R H158R [13]): strong bias towards Gi/o signaling | Emax (MC4R H158R [13]; [28]): 38.55 fold over WT basal | G12/13 (RhoA) activation compared to WT (MC4R H158R [14]): WT-like activity in G12/13 and β-arrestin2 recruitment | Emax (MC4R H158R [14]; [24]): 2.18 fold over WT basal | GS signaling compared to WT (MC4R H158R [15]): increased GS and Gq/11 signaling | Emax (MC4R H158R [15]; [26]): 14.85 fold over WT basal | ERK phosphorylation compared to WT (MC4R H158R [16]): augmented ERK phosphorylation | Emax (MC4R H158R [16]; [27]): 5.55 fold over WT basal | Emax (MC4R WT [17]): 6.58 fold over WT basal | Emax (MC4R WT [18]): 2.40 fold over WT basal | Emax (MC4R WT [19]): 4.94 fold over WT basal

Agouti-related peptide (SSRRCVRLHESCLGQQVPCCDPCATCYCRFFNAFCYCRKLGTAMNPCSRT; UniProt O00253 83-132, looked up) [AgRP]
mode of action at MC4R (MC4R; ref 15, 17): inverse agonist | mode of action at MC4R (MC4R; ref 15, 18): competitive antagonist | antagonistic effect of AgRP (MC4R H158R [20]; agonist α-MSH): loss-of-antagonist effect | antagonistic effect of AgRP (MC4R H158R [20]; agonist β-MSH): loses its antagonistic effect for this mutation | AgRP antagonistic potency (MC4R V103I [21]): modestly reduced AgRP antagonistic potency | antagonistic effect of AgRP (MC4R V103I [22]): tendency towards a reduced antagonist effect of AgRP, which was, however, not significant; also recorded: tendency towards a decreased antagonistic effect | effect of AgRP on GS signaling [23]: decreased GS signaling for all tested MC4R mutations and ligands
